Assay results published in patent US20240024494A1, “SMALL-MOLECULE CONJUGATE AND USE THEREOF” (SHANGHAI MEWSGEN BIOTECHNOLOGY CO., LTD, priority 2020, published 2024).
Like-named read-outs stand apart in the source and are kept apart here.

Legend:
[1] = tested on: HCT116 (human colon cancer cells); experiment: Tumor cell proliferation inhibition test, CCK-8 method (Example 21); type: cell-based
Method: (§1) A part of the compounds prepared in the examples of the present disclosure were subjected to a tumor cell proliferation inhibition test by using a CCK-8 method. Cell lines HCT116 (human colon cancer cells), MGC803 (human gastric cancer cells), and MIA PACA-2 (human pancreatic cancer cells) were purchased from Shanghai Meixuan Technology Co., Ltd. Samples (a part of the compounds prepared in the examples) were dissolved in DMSO (Merck), prepared into a concentration of 10 mM, and finally triply diluted in DMEM or McCoy's 5A 1640 medium to 8 concentration gradients. A cell culture solution was collected when a cell culture met a test requirement, 10 μL of the cell culture solution was uniformly coated on a cell counting plate, cells were counted for 3 times under a microscope, and a cell density was calculated by taking an average value; and a 96-well plate (Corning, #3599) was taken, 200 μL of the cell culture solution was added into each well for cell inoculation at a cell concentration of 6×10^3 cells per well, and the inoculated 96-well plate was incubated in a cell incubator containing 5% CO2 at 37° C. for 24 h. An old culture medium was removed by suction, 200 μL of the triply diluted sample DMEM or McCoy's 5A 1640 medium at an initial concentration of 10 μmol/L was added to each well, the DMSO content was controlled to be 1%, three duplicate wells were set, PBS was used as a blank control, and the plate was incubated in the incubator for 72 h. The original DMEM or McCoy's 5A 1640 medium in the 96-well plate and a PBS buffer in a final row were sucked out, a prepared CCK-8 solution (90% DMEM or McCoy's 5A 1640 medium+10% CCK-8) was added, the mixture was incubated in an incubator, and an absorbance was read by using a Biotek microplate reader. Cell growth inhibition rate IC %=(blank control well OD value−administration well OD value)/blank control well OD value×100%.

[2] = tested on: MGC803 (human gastric cancer cells); experiment: as above; type: cell-based
Method: as §1

[3] = tested on: MIA PACA-2 (human pancreatic cancer cells); experiment: as above; type: cell-based
Method: as §1

[4] = tested on: tumor cell strains (colon cancer, pancreatic cancer, esophageal squamous carcinoma, gastric cancer, glioma); experiment: Summary of in-vitro proliferation inhibition on tumor cell strains (Examples 19-21); type: cell-based, human
Method: as §1, with “A cell line” for “Cell lines”, “carcinoma cells)” for “cancer cells), MGC803 (human gastric cancer cells),”, “SW1990” for “MIA PACA-2”, “carcinoma” for “cancer”
In-vitro activity test: 100 μL of a cell suspension at a concentration of 4-5×10^4/mL was added to each well of a 96-well plate, and placed in a 5% CO2 incubator at 37° C. After 24 h, a sample solution was added at 10 μL/well, double duplicate wells were set, and a reaction was performed at 37° C. with 5% CO2 for 72 h. 20 μL of 5 mg/ml of an MTT solution was added into each well and reacted for 4 h, a dissolving solution was added at 100 μL/well, the mixture was placed in an incubator, and after dissolution, an OD value at 570 nm was measured with a full-wavelength multifunctional microplate reader. An inhibition rate (IR) and a median inhibitory concentration (IC50) were calculated by using an Excel software.
A part of the compounds prepared in the examples of the present disclosure were subjected to a tumor cell proliferation inhibition test by using a CCK-8 method. Cell lines HCT116 (human colon cancer cells), MGC803 (human gastric cancer cells), and MIA PACA-2 (human pancreatic cancer cells) were purchased from Shanghai Meixuan Technology Co., Ltd. Samples (a part of the compounds prepared in the examples) were dissolved in DMSO (Merck), prepared into a concentration of 10 mM, and finally triply diluted in DMEM or McCoy's 5A 1640 medium to 8 concentration gradients. A cell culture solution was collected when a cell culture met a test requirement, 10 μL of the cell culture solution was uniformly coated on a cell counting plate, cells were counted for 3 times under a microscope, and a cell density was calculated by taking an average value; and a 96-well plate (Corning, #3599) was taken, 200 μL of the cell culture solution was added into each well for cell inoculation at a cell concentration of 6×10^3 cells per well, and the inoculated 96-well plate was incubated in a cell incubator containing 5% CO2 at 37° C. for 24 h. […]

[5] = CCK-8, 72 h, Table 3, read-out: IC50 HCT116
[6] = CCK-8, 72 h, Table 3, read-out: IC50 MGC803
[7] = CCK-8, 72 h, Table 3, read-out: IC50 MIA PACA-2

SMILES | IC50 [1, 5] [nM] | IC50 [2, 6] [nM] | IC50 [3, 7] [nM] | Proliferation inhibition activities IC50 on most tumor cell strains (in words) [4] | IC50 ([1]; 72 h) [nM] | IC50 ([2]; 72 h) [nM] | IC50 ([3]; 72 h) [nM]
COc1cc(C(=O)NCCOCCOCCOCCC(=O)N[C@H](C(=O)N[C@@H](CCCNC(N)=O)C(=O)Nc2ccc(COC(=O)N3CCN(C(=O)O[C@H]4CC[C@@]5(C)[C@H](CC[C@@H]6[C@@H]5[C@H](O)C(=O)[C@]5(C)C(c7ccc(=O)oc7)CC[C@]65O)C4)CC3)cc2)C(C)C)ccc1NC(=O)[C@@H]1N[C@@H](CC(C)(C)C)[C@](C#N)(c2ccc(Cl)cc2F)[C@H]1c1cccc(Cl)c1F (some centres unmarked) [Compound I-2] | 26 | 54 | 212 | between several to hundreds of nanomoles | – | – | –
COc1cc(C(=O)NCCOCCOCCOCCC(=O)N[C@H](C(=O)N[C@@H](CCCNC(N)=O)C(=O)Nc2ccc(COC(=O)N3CCC(NC(=O)O[C@H]4CC[C@]5(C)C6CC[C@]7(C)[C@@H](c8ccc(=O)oc8)CC[C@]7(O)C6CC[C@@H]5C4)CC3)cc2)C(C)C)ccc1NC(=O)[C@@H]1N[C@@H](CC(C)(C)C)[C@](C#N)(c2ccc(Cl)cc2F)[C@H]1c1cccc(Cl)c1F (some centres unmarked) [Compound I-5] | 236 | 116 | 442 | – | – | – | –
COc1cc(C(=O)NCCOCCOCCOCCOCCOCCOCCC(=O)N[C@@H](C(=O)N[C@@H](CCCNC(N)=O)C(=O)Nc2ccc(COC(=O)N3CCC(NC(=O)O[C@H]4CC[C@]5(C)C6CC[C@]7(C)C(c8ccc(=O)oc8)CC[C@]7(O)C6CC[C@@H]5C4)CC3)cc2)C(C)C)ccc1NC(=O)[C@@H]1N[C@@H](CC(C)(C)C)[C@](C#N)(c2ccc(Cl)cc2F)[C@H]1c1cccc(Cl)c1F (some centres unmarked) [Compound I-7] | 1290 | 292 | 3530 | – | – | – | –
COc1cc(C(=O)NCCOCCOCCOCCOCCOCCOCCC(=O)N[C@@H](C(=O)N[C@@H](CCCNC(N)=O)C(=O)Nc2ccc(COC(=O)N3CCN(C(=O)O[C@H]4CC[C@@]5(C)[C@H](CC[C@@H]6[C@@H]5[C@H](O)C(=O)[C@]5(C)C(c7ccc(=O)oc7)CC[C@]65O)C4)CC3)cc2)C(C)C)ccc1NC(=O)[C@@H]1N[C@@H](CC(C)(C)C)[C@](C#N)(c2ccc(Cl)cc2F)[C@H]1c1cccc(Cl)c1F (some centres unmarked) [Compound I-8] | 12 | 12 | 87 | between several to hundreds of nanomoles | – | – | –
COc1cc(C(=O)NCCOCCOCCOCCOCCC(=O)N[C@H](C(=O)N[C@@H](C)C(=O)Nc2ccc(COC(=O)N3CCN(C(=O)O[C@H]4CC[C@@]5(C)[C@H](CC[C@@H]6[C@@H]5[C@H](O)C(=O)[C@]5(C)[C@@H](c7ccc(=O)oc7)CC[C@]65O)C4)CC3)cc2)C(C)C)ccc1NC(=O)[C@@H]1N[C@@H](CC(C)(C)C)[C@](C#N)(c2ccc(Cl)cc2F)[C@H]1c1cccc(Cl)c1F [Compound I-10] | 395 | 307 | 443 | – | – | – | –
COc1cc(C(=O)NCCOCCOCCOCCOCCC(=O)N[C@H](C(=O)N[C@@H](C)C(=O)Nc2ccc(COC(=O)N3CCC(NC(=O)O[C@H]4CC[C@]5(C)C6CC[C@]7(C)[C@@H](c8ccc(=O)oc8)CC[C@]7(O)C6CC[C@@H]5C4)CC3)cc2)C(C)C)ccc1NC(=O)[C@@H]1N[C@@H](CC(C)(C)C)[C@](C#N)(c2ccc(Cl)cc2F)[C@H]1c1cccc(Cl)c1F (some centres unmarked) [Compound I-11] | 27 | 10 | 68 | between several to hundreds of nanomoles | – | – | –
COc1cc(C(=O)NCCOCCOCCOCCOCCC(=O)N[C@@H](CCSC)C(=O)N[C@@H](CCCNC(N)=O)C(=O)Nc2ccc(COC(=O)O[C@@H](C(=O)O[C@H]3C[C@@]4(O)[C@@H](OC(=O)c5ccccc5)C5[C@](C)(C(=O)[C@H](OC(C)=O)C(=C3C)C4(C)C)[C@@H](O)C[C@H]3OC[C@@]53OC(C)=O)[C@@H](NC(=O)c3ccccc3)c3ccccc3)cc2)ccc1NC(=O)[C@@H]1N[C@@H](CC(C)(C)C)[C@](C#N)(c2ccc(Cl)cc2F)[C@H]1c1cccc(Cl)c1F (some centres unmarked) [Compound I-12] | – | – | – | – | 5260 | 626 | 542
COc1cc(C(=O)NCCOCCOCCOCCOCCC(=O)N[C@@H](CCSC)C(=O)N[C@@H](CCCNC(N)=O)C(=O)Nc2ccc(COC(=O)N3CCN(C(=O)O[C@H]4CC[C@@]5(C)[C@H](CC[C@@H]6[C@@H]5[C@H](O)C(=O)[C@]5(C)[C@@H](c7ccc(=O)oc7)CC[C@]65O)C4)CC3)cc2)ccc1NC(=O)[C@@H]1N[C@@H](CC(C)(C)C)[C@](C#N)(c2ccc(Cl)cc2F)[C@H]1c1cccc(Cl)c1F [Compound I-13] | 14 | 14 | 24 | between several to hundreds of nanomoles | – | – | –
COc1cc(C(=O)NCCOCCOCCOCCOCCC(=O)N[C@@H](CCSC)C(=O)N[C@@H](CCCNC(N)=O)C(=O)Nc2ccc(COC(=O)N3CCC(NC(=O)O[C@H]4CC[C@]5(C)C6CC[C@]7(C)[C@@H](c8ccc(=O)oc8)CC[C@]7(O)C6CC[C@@H]5C4)CC3)cc2)ccc1NC(=O)[C@@H]1N[C@@H](CC(C)(C)C)[C@](C#N)(c2ccc(Cl)cc2F)[C@H]1c1cccc(Cl)c1F (some centres unmarked) [Compound I-14] | 483 | 249 | 670 | between several to hundreds of nanomoles | – | – | –
